The experiment deals with VEGF receptor 2 kinase (VEGFR2, KDR/Flk-1) (Homo sapiens, UniProt P35968). Briefly: in vitro kinase assay. It counts as biochemical.

From publication PMC2724674 (Cancer research, 2009) come the findings set out here.

The IC50 is the concentration that gives 50% inhibition. The low end stands for greater potency in that assay, the high end for weaker potency in that assay.

VEGF receptor 2 kinase (VEGFR2, KDR/Flk-1), sequence (P35968 20-1356): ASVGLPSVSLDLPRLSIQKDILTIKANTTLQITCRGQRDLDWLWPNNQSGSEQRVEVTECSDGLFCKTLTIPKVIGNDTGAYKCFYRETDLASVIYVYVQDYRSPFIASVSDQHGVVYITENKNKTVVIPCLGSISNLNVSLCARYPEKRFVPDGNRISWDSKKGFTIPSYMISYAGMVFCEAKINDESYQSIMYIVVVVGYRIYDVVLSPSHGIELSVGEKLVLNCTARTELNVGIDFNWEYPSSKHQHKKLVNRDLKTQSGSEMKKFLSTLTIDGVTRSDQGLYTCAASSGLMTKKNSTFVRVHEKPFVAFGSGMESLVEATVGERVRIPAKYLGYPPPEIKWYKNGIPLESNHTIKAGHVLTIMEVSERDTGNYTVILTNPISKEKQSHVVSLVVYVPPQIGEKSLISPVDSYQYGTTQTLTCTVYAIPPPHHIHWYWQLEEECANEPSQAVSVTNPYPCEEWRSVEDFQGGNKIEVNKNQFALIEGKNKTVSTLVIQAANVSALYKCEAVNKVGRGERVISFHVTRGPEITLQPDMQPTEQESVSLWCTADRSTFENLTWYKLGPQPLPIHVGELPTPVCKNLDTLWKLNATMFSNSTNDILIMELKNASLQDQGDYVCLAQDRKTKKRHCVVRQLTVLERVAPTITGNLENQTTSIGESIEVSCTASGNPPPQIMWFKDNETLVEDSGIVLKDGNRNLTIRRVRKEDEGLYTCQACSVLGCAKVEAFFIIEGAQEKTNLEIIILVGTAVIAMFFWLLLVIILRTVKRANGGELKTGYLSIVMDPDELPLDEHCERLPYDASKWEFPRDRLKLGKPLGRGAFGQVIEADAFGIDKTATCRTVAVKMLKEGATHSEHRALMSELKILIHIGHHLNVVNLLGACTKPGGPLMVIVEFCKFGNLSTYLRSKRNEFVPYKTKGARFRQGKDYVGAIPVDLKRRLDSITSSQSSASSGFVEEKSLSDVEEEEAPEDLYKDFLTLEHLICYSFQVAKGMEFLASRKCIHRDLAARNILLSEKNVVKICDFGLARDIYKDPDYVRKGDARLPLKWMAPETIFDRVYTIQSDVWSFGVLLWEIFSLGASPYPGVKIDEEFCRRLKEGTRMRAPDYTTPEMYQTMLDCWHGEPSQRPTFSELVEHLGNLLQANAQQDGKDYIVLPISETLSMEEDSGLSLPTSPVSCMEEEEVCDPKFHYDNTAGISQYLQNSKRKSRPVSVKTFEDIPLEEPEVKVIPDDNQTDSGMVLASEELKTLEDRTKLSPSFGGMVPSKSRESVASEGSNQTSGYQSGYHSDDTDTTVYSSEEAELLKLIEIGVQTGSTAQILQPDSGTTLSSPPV

`CC(=O)O[C@@H]1CC[C@@]2(C)[C@@H](CC[C@]3(C)[C@@H]2C(=O)C=C2[C@@H]4[C@@H](C)[C@H](C)CC[C@]4(C)CC[C@]23C)[C@@]1(C)C(=O)O` [AKBA] returned a half-maximal inhibitory concentration (IC50) of 1680 nM.
